From patent US20220110985A1, “NUTRITIONAL COMPOSITION COMPRISING 2'FUCOSYLLACTOSE AND 3'GALACTOSYLLACTOSE” (N.V. Nutricia, priority 2019, published 2022)

What was measured:
[1] = test system: infant intestinal microbiota; experiment: quad-SHIME infant intestinal microbiota model (SCFA, glycoprofile); assay type: cell-based, human infant faecal inoculum; design: Butyrate (Mean ± SD) / Iso-Butyrate (Mean ± SD) / Acetate (Mean ± SD): unit not given here; details: distal colon
Text: A faecal sample from a healthy infant born via C-section, exclusively breastfed with no history of antibiotic usage, was used as inoculum to simulate the infant intestinal microbiota in the colon compartments of a quad-SHIME®—a dynamic model of the human gastrointestinal tract comprises 4 SHIME® units running in parallel and each SHIME® unit is composed of 3 reactors simulating the stomach and small intestine, proximal and distal colons.

[2] = test system: Salmonella enteriditis S29; experiment: Fecal slurry fermentation spiked with pathogens: Salmonella; assay type: cell-based
Method: (§1) Anaerobic fermentation of fecal slurry samples was tested in a BioLector Pro microfluidics mini multifermentor. Faecal slurry samples were collected from breast fed infants and from formula fed infants. These faecal slurry samples were processed by adding 0.6 grams feces in 40 ml Baby Reichardt V.6 medium+mucus+Ammonium sulfate+lactate and acetate. The resulting solutions were inserted to the BioLector Pro microfluidics mini multifermentor. The test legs were supplemented with 3-GL, 2′-FL, 3′-GL+2′-FL, and GOS/FOS. The control leg was supplemented with sterile water.
(§2) In addition the test legs were supplemented with Clostridium difficile C153 (difficile agar), Salmonella enteriditis S29 (XLD agar), Cronobacter sakasakii E71 (chromogenic agar) or Klebsiella pneumonia K2 (Simons citrate inositol agar). For every NDO and for the control also a pathogen free culture was prepared.
(§3) A 32 well plate that can handle low pH was used. The wells of this plate were filled with fecal solution. 2.5% (w/v) of the different sterile carbohydrate solutions (3′-GL, 2′-FL, 2′-FL/3′-GL (2.0+0.5%). and Glucose were added to the fecal slurry according to a template. […]

[3] = test system: Klebsiella pneumonia K2; experiment: Fecal slurry fermentation spiked with pathogens: Klebsiella; assay type: cell-based; details: inoculum of baby 2, spiked
Method: as §1, §2, §3

Question: How did the “Acetate (Mean ± SD)” value ([1]; D1-D3) turn out when `C[C@@H]1O[C@@H](O[C@H]2[C@H](O[C@H]3[C@H](O)[C@@H](O)C(O)O[C@@H]3CO)O[C@H](CO)[C@H](O)[C@@H]2O)[C@@H](O)[C@H](O)[C@@H]1O` (stereo partly drawn) [2′-FL, α-L-Fuc-(1→2)-β-D-Gal-(1→4)-D-Glc] was run?
Answer: The value was 38.67 ± 10.25.

Question: And the “Butyrate (Mean ± SD)” value ([1]; D1-D3)?
Answer: The value was 0 ± 0.

Question: And the “Iso-Butyrate (Mean ± SD)” value ([1]; D1-D3)?
Answer: Its value is 0 ± 0.

Question: What about the “Propionate (Mean ± SD)” value ([1]; D1-D3) of the same molecule?
Answer: Its value is 10.17 ± 3.01.

Question: What about the “Acetate (Mean ± SD)” value ([1]; D4-D11) of the same molecule?
Answer: The value was 26.22 ± 0.97.

Question: What about the “Butyrate (Mean ± SD)” value ([1]; D4-D11) of the same molecule?
Answer: The value was 0.74 ± 0.49.

Question: What about the “Iso-Butyrate (Mean ± SD)” value ([1]; D4-D11) of the same molecule?
Answer: Its value is 0.68 ± 0.75.

Question: And the “Propionate (Mean ± SD)” value ([1]; D4-D11)?
Answer: The value was 6.58 ± 0.49.

Question: And the “Acetate (Mean ± SD)” value ([1]; D12-D15)?
Answer: Its value is 22.96 ± 1.04.

Question: What about the “Butyrate (Mean ± SD)” value ([1]; D12-D15) of the same molecule?
Answer: The value was 0.99 ± 0.09.

Question: And the “Iso-Butyrate (Mean ± SD)” value ([1]; D12-D15)?
Answer: Its value is 0.93 ± 0.21.

Question: And the “Propionate (Mean ± SD)” value ([1]; D12-D15)?
Answer: Its value is 6.13 ± 0.63.

Question: And the “butyrate generation, in words” value ([1]; relative to control and scGOS/lcFOS groups)?
Answer: The value was “generated earlier in the distal colon and at a higher concentration”.

Question: And the Salmonella growth ([2]; inoculum of baby 1, spiked)?
Answer: Its Salmonella growth is “most restricted”.

Question: What about the Salmonella growth ([2]; inoculum of baby 2, spiked) of the same molecule?
Answer: The Salmonella growth was “most restricted”.

Question: For “Gal (beta 1-3)-Gal (beta 1-4)-Glc [3′-GL]”, which Klebsiella growth [3] is on record?
Answer: The Klebsiella growth was “most inhibited”.
